Measurements as given in the NIST ThermoML archive (doi:10.1016/j.tca.2018.04.002).
± gives the expanded uncertainty stated by the source.

Columns and labels:
[1] = Molar enthalpy of transition or fusion; details: Crystal; DSC
[2] = Crystal

Molar enthalpy of transition or fusion [1]: 10.4 ± 2.08 kcal/mol
thermal conductivity ([2]; 296.15 K, 101.33 kPa, Hot disk method): 0.394 ± 0.081 W/m/K
Triple point temperature ([2]; DSC): 320.35 ± 4.1 K
SMILES: CCCCCCCCCCCC(=O)O [dodecanoic acid]
